The source made the active and inactive calls.
Experiments:
[1] = fluconazole-exposed Candida albicans growth modulators – fluorescence, retest, confirmation (AID 2467); assay type: functional, cell-based
[2] = Trypanosoma cruzi growth suppression in host cells – NIH3T3 host cells, beta-gal luminescence, confirmation (AID 2044); assay type: functional, cell-based;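 further: intracellular parasites grown in NIH/3T3 mouse fibroblasts as host cells; luminescent beta-galactosidase reporter signal from transgenic T. cruzi replicating inside host cells; inhibitors lower the luminescence signal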
Protein RecA = biological target: T1, Protein RecA (Mycobacterium tuberculosis, UniProt P9WHJ3); experiment: Fluorescence Cell-Free Homogeneous Dose Retest to Identify Inhibitors of RecA-Intein Splicing Activity. [Related pubchem assays (depositor defined):AID2097, AID2223, AID489010, AID492950]; assay type: functional
T1 sequence (P9WHJ3 whole entry): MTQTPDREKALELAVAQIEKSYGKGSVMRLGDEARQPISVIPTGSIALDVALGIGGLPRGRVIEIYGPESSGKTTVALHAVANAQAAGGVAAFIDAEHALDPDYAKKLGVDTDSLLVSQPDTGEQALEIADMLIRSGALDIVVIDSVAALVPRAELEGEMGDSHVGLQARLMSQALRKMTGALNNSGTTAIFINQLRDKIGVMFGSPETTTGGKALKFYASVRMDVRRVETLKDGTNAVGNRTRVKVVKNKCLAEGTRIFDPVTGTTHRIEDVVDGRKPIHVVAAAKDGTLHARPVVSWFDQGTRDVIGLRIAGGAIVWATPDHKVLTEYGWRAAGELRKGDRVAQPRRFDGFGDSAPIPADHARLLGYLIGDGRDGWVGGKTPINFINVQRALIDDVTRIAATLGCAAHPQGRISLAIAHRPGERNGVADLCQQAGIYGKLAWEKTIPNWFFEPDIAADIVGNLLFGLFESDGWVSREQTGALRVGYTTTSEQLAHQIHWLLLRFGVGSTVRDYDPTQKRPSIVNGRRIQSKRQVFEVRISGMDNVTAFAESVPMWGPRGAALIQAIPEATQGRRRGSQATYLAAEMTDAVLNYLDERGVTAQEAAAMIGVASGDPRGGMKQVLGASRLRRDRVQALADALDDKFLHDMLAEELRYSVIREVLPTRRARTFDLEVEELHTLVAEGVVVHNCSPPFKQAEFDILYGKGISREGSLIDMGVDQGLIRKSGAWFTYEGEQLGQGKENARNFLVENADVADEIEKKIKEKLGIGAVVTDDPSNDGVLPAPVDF

[3] = biological target: T2, Replicative DNA helicase DnaB (Mycobacterium tuberculosis, UniProt P9WMR3); experiment: DnaB intein splicing inhibitors, dose response, biochemical, cell-free fluorescence (AID 449749); assay type: functional
T2 sequence (P9WMR3 whole entry): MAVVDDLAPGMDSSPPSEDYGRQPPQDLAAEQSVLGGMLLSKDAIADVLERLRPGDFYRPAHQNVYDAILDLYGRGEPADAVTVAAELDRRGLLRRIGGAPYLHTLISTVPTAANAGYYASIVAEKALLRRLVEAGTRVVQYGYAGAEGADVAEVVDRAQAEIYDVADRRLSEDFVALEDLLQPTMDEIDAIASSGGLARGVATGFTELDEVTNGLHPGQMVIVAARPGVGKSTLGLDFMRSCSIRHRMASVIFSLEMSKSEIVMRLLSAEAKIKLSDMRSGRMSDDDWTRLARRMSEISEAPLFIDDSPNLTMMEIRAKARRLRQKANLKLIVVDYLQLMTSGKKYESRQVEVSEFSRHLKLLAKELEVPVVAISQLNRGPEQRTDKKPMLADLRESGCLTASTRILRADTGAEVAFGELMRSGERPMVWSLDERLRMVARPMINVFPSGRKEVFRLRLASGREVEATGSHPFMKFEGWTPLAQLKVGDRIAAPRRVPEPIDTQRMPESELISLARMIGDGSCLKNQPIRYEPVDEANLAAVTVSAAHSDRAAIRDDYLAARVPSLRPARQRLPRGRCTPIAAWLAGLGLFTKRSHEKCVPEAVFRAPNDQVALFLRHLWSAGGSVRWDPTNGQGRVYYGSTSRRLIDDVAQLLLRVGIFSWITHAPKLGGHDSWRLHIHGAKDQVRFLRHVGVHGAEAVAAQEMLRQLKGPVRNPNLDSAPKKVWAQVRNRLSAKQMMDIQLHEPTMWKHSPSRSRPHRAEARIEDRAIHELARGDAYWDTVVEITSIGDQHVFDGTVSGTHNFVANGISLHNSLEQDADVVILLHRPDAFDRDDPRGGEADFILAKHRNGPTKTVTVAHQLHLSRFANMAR

[4] = biological target: T3, Microphthalmia-associated transcription factor (Homo sapiens, UniProt O75030); experiment: reducers of TRPM1 reporter luminescence, concentration series – cell-based, SK-MEL-5, cherry-picked, set 3, MITF inhibitor project, dose response (AID 493073); assay type: functional;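 further: SK-MEL-5 melanoma cells with luciferase driven by the MITF target TRPM1 promoter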
T3 sequence (O75030 whole entry): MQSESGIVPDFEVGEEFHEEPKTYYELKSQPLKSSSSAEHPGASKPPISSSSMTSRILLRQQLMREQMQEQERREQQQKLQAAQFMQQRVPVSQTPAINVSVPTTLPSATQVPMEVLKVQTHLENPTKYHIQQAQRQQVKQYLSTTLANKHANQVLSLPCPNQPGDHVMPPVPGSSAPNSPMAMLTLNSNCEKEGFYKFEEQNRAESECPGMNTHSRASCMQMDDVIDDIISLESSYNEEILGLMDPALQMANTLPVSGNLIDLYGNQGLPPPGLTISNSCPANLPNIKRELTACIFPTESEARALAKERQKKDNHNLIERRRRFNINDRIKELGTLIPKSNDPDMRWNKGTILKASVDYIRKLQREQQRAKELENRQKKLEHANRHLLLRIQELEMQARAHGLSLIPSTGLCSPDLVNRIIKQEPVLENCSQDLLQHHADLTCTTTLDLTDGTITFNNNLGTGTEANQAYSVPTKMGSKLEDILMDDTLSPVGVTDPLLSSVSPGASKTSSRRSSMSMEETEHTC

[5] = NIH-3T3 fibroblast cytotoxicity, dose response, cytotoxicity control, cell-based, fluorescence, Alamar Blue, secondary assay (AID 2327); assay type: functional;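 further: NIH-3T3 mouse fibroblasts cultured with fluconazole at 8 µg/mL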
[6] = biological target: T4, Heat shock factor protein 1 (Mus musculus, UniProt P38532); experiment: decrease of HSF1-responsive luciferase luminescence – cell-based, NIH3T3, dose retest, confirmation (AID 2382); assay type: functional;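 further: NIH3T3 fibroblasts with HSF1-driven luciferase reporter stressed by proteasome inhibitor MG132; luminescence from HSF1-driven luciferase expression after 8 hours of MG132 stress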
T4 sequence (P38532 whole entry): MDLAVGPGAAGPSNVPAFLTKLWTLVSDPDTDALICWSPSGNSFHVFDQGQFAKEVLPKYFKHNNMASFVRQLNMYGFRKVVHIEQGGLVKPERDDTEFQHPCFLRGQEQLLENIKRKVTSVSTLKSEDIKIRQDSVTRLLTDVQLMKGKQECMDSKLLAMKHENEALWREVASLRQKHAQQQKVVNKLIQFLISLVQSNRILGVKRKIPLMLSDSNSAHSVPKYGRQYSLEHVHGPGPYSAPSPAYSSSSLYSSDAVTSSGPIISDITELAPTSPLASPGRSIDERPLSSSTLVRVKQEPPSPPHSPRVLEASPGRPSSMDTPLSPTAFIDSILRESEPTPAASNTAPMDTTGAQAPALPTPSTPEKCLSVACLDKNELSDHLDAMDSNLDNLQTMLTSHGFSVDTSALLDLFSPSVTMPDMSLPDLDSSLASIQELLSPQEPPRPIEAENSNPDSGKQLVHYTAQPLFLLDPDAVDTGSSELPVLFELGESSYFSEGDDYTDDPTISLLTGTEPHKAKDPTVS

[7] = NIH3T3 cell viability loss – ATP luminescence, mouse fibroblasts, counter-screen, dose response (AID 2010); assay type: functional, cell-based;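 further: cells exposed to compound for about 90 hours before reading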
[8] = biological target: T5, Carboxy-terminal domain RNA polymerase II polypeptide A small phosphatase 1 (Homo sapiens, UniProt Q9GZU7); experiment: CTDSP1 inhibitors, concentration-response, biochemical, absorbance readout, ultra-high-throughput screen actives (AID 540297); assay type: functional
T5 sequence (Q9GZU7 whole entry): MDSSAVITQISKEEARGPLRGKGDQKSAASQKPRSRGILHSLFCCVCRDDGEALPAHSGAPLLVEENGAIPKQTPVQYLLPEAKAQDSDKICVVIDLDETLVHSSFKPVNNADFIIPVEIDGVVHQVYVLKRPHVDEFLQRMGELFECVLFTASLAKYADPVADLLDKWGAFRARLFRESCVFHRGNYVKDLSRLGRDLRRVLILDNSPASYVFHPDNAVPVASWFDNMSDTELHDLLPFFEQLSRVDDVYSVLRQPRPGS

Large T antigen = Large T antigen (Simian virus 40, UniProt P03070); assay type: functional, Betapolyomavirus macacae;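 further: Confirmatory-stage PubChem screen for compounds that inhibit SV40 T antigen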
[9] = biological target: FAD-linked sulfhydryl oxidase ALR (Homo sapiens, UniProt P55789); experiment: ALR-catalysed DTT oxidation blockers – biochemical, H2O2 detection, luminescence, cherry-pick, dose response (AID 493248)
INS1 = experiment: INS-1E survival protection against cytokine death – cell-based, luminescence, retest, dose response (AID 449756); assay type: functional; details: Rattus norvegicus;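 further: cell death triggered by IL-1 beta plus TNF-alpha plus IFN-gamma mixture; protective hits raise ATP signal compared with cytokine alone wells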
Genome polyprotein = Genome polyprotein (dengue virus type 2, UniProt P29990); experiment: flavivirus cap methylation enzyme inhibition – biochemical, confirmation dose response, primary screen (AID 588689); assay type: functional
[10] = biological target: T6, Calpain-2 catalytic subunit (Sus scrofa, UniProt P43367); experiment: m-calpain protease blockers, concentration series – biochemical, fluorogenic peptide substrate, dose response (AID 1420); assay type: functional
T6 sequence (P43367 whole entry): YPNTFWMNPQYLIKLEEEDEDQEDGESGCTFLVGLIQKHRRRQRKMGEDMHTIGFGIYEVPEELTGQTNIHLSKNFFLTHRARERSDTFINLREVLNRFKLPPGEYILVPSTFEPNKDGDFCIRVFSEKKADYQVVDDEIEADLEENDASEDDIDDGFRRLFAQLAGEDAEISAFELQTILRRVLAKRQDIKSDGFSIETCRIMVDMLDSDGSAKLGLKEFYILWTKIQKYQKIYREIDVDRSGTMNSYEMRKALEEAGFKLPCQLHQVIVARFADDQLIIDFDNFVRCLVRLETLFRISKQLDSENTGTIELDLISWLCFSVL

[11] = biological target: Heat shock protein HSP 90-alpha (Homo sapiens, UniProt P07900); assay type: functional, organism-based
[12] = Luminescence Cell-Based Dose Retest to Confirm Inhibitors of Cancer Stem Cells. [Related pubchem assays (depositor defined):AID2717, AID2721]; assay type: functional; details: Homo sapiens
P388/ADR = experiment: cells; assay type: functional; details: Mus musculus
P388 = experiment: cells; assay type: functional; details: Mus musculus

FAD-linked sulfhydryl oxidase ALR, sequence (P55789 whole entry): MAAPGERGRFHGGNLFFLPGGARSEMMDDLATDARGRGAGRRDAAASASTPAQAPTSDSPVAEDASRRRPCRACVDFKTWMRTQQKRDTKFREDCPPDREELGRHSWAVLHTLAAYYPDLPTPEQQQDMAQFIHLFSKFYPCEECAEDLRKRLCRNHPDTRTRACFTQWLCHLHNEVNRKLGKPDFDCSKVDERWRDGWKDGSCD
Large T antigen, sequence (P03070 whole entry): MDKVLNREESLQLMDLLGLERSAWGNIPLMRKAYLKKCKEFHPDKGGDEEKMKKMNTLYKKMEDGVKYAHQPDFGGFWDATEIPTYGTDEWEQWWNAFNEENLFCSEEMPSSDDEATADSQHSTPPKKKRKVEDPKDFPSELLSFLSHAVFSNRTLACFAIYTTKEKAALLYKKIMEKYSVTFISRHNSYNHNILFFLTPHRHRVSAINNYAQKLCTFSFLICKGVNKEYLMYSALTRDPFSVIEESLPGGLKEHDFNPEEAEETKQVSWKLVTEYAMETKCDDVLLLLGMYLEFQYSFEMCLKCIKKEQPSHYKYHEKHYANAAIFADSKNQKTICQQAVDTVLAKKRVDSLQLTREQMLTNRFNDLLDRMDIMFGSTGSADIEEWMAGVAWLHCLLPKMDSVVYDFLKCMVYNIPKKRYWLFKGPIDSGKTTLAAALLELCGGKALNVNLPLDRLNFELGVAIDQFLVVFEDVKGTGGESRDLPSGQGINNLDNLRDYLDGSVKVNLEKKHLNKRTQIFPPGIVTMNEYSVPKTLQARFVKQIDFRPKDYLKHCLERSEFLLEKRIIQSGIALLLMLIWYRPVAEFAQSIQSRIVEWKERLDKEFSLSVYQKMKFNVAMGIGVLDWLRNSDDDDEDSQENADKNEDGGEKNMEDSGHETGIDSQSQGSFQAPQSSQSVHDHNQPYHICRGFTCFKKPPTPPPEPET
Genome polyprotein, sequence (P29990 2492-3391 limits assumed): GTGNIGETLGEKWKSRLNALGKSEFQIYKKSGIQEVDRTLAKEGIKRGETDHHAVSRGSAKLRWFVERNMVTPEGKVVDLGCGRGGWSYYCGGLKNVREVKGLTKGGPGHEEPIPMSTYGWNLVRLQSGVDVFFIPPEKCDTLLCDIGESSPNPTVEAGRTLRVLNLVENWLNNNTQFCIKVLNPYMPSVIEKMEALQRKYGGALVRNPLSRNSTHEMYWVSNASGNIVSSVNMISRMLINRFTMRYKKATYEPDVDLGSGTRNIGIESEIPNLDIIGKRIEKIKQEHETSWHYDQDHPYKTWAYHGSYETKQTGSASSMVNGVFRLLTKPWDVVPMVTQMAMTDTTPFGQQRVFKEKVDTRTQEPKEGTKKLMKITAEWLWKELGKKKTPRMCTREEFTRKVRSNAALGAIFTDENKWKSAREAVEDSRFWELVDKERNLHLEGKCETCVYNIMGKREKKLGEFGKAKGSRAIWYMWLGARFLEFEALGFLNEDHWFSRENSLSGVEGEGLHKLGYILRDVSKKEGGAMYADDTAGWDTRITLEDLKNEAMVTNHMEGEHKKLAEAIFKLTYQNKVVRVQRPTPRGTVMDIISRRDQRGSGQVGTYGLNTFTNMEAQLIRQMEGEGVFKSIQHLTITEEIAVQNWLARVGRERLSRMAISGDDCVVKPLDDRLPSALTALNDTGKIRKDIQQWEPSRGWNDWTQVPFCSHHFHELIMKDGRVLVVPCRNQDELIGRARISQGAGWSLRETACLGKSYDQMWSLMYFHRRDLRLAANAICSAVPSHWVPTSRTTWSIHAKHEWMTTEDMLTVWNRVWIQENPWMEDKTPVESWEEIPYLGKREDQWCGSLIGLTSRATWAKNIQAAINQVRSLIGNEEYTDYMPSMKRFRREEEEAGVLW

O=C(CCl)Nc1ccc(-c2ccccc2)cc1
EC50 [1]: 1.77 µM (active)
EC50 [2]: 1.69 µM (active)
EC50 (Protein RecA): 0.587 µM (active)
AC50 [3]: 20.5 µM (active)
AC50 [4]: 7.3 µM (active)
EC50 [5]: 4.59 µM (inconclusive)
EC50 [6]: 9.64 µM (active)
EC50 [7]: < 6 µM (inconclusive)

COc1ccc2cc3cc(C(=O)NCc4ccco4)oc3nc2c1
IC50 [8]: 10.1 µM (active)

COc1cccc(NC(S)=Nc2ccc(O)cc2)c1
IC50 (Large T antigen): 5.64 µM (active)

C/C(=N\Nc1ccc(Cl)cc1)c1ccccn1
AC50 [9]: 1.03 µM (active)

O=C(Nc1ccc(F)cc1)c1cccc(N2C(=O)c3ccccc3C2=O)c1
IC50 [8]: 11.1 µM (active)

CCCc1ccc(C(=O)NNC(=O)c2ccc(Br)cc2)cc1
IC50 [8]: 5.88 µM (active)

C[N+]1=C(/C=C/Nc2ccccc2Cl)C(C)(C)c2ccccc21
AC50 (INS1): 7.84 µM (active)
IC50 [8]: 5.96 µM (active)

O=C(O)c1cccc(NC(=O)c2cccc(NC(=O)C3CCCO3)c2)c1 (centres undefined)
AC50 [4]: 21.2 µM (active)

COc1cc(/C=N/NC(=O)c2ccc(Cn3cc([N+](=O)[O-])cn3)o2)cc(Br)c1O
IC50 (Large T antigen): 24 µM (active)

Fc1ccc(CSc2nnc(-c3cnccn3)n2Cc2ccco2)cc1
AC50 [9]: 3.85 µM (active)

Oc1ccc(Br)cc1-c1cc(-c2ccco2)[nH]n1
AC50 [9]: 3.51 µM (active)

CCCCOc1ccc(CNC(=O)NS(=O)(=O)c2ccc(OCC(C)C)cc2)cc1
IC50 [8]: 14.8 µM (active)

COc1cc(/C=C2\SC(=S)N(CCCCC(=O)O)C2=O)ccc1OS(=O)(=O)c1ccc(C)cc1
IC50 (Genome polyprotein): 39.8 µM (active)
IC50 [8]: 4.16 µM (active)

Cc1cc(-c2nnc(S)n2/N=C/C(Cl)=C/c2ccccc2)[nH]n1
AC50 [9]: 0.109 µM (active)

C/C(=N\NC(=O)CCCNc1cccc(C)c1)c1ccncc1
AC50 [9]: 2.59 µM (active)

CCOc1cc(/C=N/Nc2ccc(C(=O)O)cc2)ccc1OC(=O)c1ccccc1C
IC50 [10]: 5.07 µM (active)

O=S(=O)(c1c(F)cccc1F)N(CCc1ccc(F)cc1)C[C@@H](O)COCc1ccccc1
AC50 [11]: 0.392 µM (active)

C=C1c2cccc(OC)c2O[C@H](C(=O)OCC)[C@@H]1CC(CC)CCCC (some centres undefined)
IC50 [8]: 52.1 µM (active)

CC(C)Oc1ccc(C(=O)/C=C2/C(=O)Nc3ccccc32)cc1
AC50 [11]: 1.94 µM (active)
AC50 [12]: 4.39 µM (active)

CCC(C)C(=O)N1CCc2cc(-c3csc(N)n3)ccc21 (centres undefined)
AC50 [9]: 0.3 µM (active)

O=C(O)C1Cc2c([nH]c3ccccc23)C=N1 (centres undefined)
GI50 (P388/ADR): > 100 µM (inactive)
GI50 (P388): > 100 µM (inactive)

C(=C\c1ccccc1)/C=N/N1CCN(Cc2ccccc2)CC1
IC50 [10]: > 50 µM (not active)

O=[N+]([O-])c1ccc(CSC2=NCCN2)cc1
AC50 [9]: 0.04 µM (active)

O=C1C2CCCCC2C(=O)N1c1ccc(NC2CCN(Cc3ccccc3)CC2)c([N+](=O)[O-])c1 (centres undefined)
IC50 [10]: > 50 µM (not active)

O=C(/C=C/c1ccccc1)CCN1CCCCC1
AC50 [11]: 3.9 µM (active)

CCN(C(=O)C1CCCN(c2nc(-c3ccc(OC)cc3)no2)C1)c1ccc(OC)cc1 (centres undefined)
AC50 [11]: 7.81 µM (active)

CCC(C(C)N1CC(=O)NC(=O)C1)N1CC(=O)NC(=O)C1 (centres undefined)
GI50 (P388/ADR): 6.12 µM (inactive)
GI50 (P388): < 0.0316 µM (active)

Source: ChEMBL document CHEMBL1201862, “PubChem BioAssay data set” (2004)
